Data set [1] can be described thus: Water solubility. The format is physicochemical. The following applies: clinical grade dextran of about 70 kDa versus HSA.
For data set [2] the following is noted: cited from earlier work.

In the case of dextran, the “water solubility, fold lower than HSA” value in data set [1] is greater than 10 fold. In addition, the water solubility entry in data set [2] is “about 30 mg/mL”.
